Measured values published in ChEMBL document CHEMBL3085760, “Novel polyamine analogues: from substrates towards potential inhibitors of monoamine oxidases” (Eur J Med Chem, 2013).

What was measured:
[1] = molecular target: T1, Amine oxidase [flavin-containing] A (Homo sapiens, UniProt P21397); test: Reversible inhibition of recombinant human MAO-A expressed in baculovirus infected BT1 cells using p-tyramine as substrate by Lineweaver-Burk plot analysis
T1 sequence (P21397 whole entry): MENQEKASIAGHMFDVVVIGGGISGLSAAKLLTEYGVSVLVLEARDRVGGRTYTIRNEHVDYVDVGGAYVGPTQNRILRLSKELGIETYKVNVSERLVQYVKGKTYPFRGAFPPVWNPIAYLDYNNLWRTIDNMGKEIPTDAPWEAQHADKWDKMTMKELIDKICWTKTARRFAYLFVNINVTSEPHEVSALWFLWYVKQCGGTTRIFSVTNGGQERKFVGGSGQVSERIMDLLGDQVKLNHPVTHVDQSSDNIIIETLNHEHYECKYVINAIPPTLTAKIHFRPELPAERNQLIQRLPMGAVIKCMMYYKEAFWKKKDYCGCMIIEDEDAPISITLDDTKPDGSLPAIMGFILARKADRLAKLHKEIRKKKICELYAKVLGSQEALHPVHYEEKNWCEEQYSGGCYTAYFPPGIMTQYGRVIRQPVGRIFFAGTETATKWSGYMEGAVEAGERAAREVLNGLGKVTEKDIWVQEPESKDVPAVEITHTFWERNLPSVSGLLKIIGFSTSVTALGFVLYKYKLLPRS

[2] = molecular target: T2, Amine oxidase [flavin-containing] B (Homo sapiens, UniProt P27338); test: Ratio of relative Vmax to Km for recombinant human MAO-B expressed in baculovirus infected BT1 cells assessed as hydrogen peroxide generation rate using benzylamine as substrate at 200 uM preincubated for 30 mins by Amplex Red assay
T2 sequence (P27338 whole entry): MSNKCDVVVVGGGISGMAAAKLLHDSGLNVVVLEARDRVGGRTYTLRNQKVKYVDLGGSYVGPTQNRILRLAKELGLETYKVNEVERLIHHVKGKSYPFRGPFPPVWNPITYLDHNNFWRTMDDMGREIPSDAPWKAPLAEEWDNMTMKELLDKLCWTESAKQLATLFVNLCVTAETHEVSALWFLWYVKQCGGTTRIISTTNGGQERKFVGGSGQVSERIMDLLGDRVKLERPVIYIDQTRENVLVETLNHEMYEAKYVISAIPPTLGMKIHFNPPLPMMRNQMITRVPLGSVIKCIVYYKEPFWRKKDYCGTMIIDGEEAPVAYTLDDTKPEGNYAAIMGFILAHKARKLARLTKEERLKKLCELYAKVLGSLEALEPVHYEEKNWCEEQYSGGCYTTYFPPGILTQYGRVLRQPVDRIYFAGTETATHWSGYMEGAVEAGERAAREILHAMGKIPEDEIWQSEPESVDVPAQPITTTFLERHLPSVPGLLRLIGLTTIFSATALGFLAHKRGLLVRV

[3] = molecular target: T1, Amine oxidase [flavin-containing] A; test: Ratio of relative Vmax to Km for recombinant human MAO-A expressed in baculovirus infected BT1 cells assessed as hydrogen peroxide generation rate using p-tyramine as substrate at 200 uM preincubated for 30 mins by Amplex Red assay
[4] = molecular target: T2, Amine oxidase [flavin-containing] B; test: Reversible inhibition of recombinant human MAO-B expressed in baculovirus infected BT1 cells using benzylamine as substrate at 200 uM preincubated for 30 mins by Lineweaver-Burk plot analysis
[5] = molecular target: T1, Amine oxidase [flavin-containing] A; test: Activity at recombinant human MAO-A expressed in baculovirus infected BT1 cells assessed as hydrogen peroxide generation rate per min/mg using p-tyramine as substrate at 200 uM preincubated for 30 mins by Amplex Red assay relative to control
[6] = molecular target: T2, Amine oxidase [flavin-containing] B; test: Mixed type inhibition of recombinant human MAO-B expressed in baculovirus infected BT1 cells using benzylamine as substrate at 200 uM preincubated for 30 mins by Lineweaver-Burk plot analysis
[7] = molecular target: T1, Amine oxidase [flavin-containing] A; test: Mixed type inhibition of recombinant human MAO-A expressed in baculovirus infected BT1 cells using p-tyramine as substrate by Lineweaver-Burk plot analysis
[8] = molecular target: T2, Amine oxidase [flavin-containing] B; test: Activity at recombinant human MAO-B expressed in baculovirus infected BT1 cells assessed as hydrogen peroxide generation rate per min/mg using benzylamine as substrate at 200 uM preincubated for 30 mins by Amplex Red assay relative to control
[9] = molecular target: T1, Amine oxidase [flavin-containing] A; test: Activity at recombinant human MAO-A expressed in baculovirus infected BT1 cells assessed as hydrogen peroxide generation rate using p-tyramine as substrate at 500 uM preincubated for 30 mins by Amplex Red assay relative to control
[10] = molecular target: T1, Amine oxidase [flavin-containing] A; test: Activity at recombinant human MAO-A expressed in baculovirus infected BT1 cells assessed as hydrogen peroxide generation rate using p-tyramine as substrate at 500 uM preincubated for 30 mins by Amplex Red assay
[11] = molecular target: T2, Amine oxidase [flavin-containing] B; test: Activity at recombinant human MAO-B expressed in baculovirus infected BT1 cells assessed as hydrogen peroxide generation rate using benzylamine as substrate at 500 uM preincubated for 30 mins by Amplex Red assay relative to control
[12] = molecular target: T1, Amine oxidase [flavin-containing] A; test: Ratio of relative Vmax to Km for recombinant human MAO-A expressed in baculovirus infected BT1 cells assessed as hydrogen peroxide generation rate using p-tyramine as substrate at 500 uM preincubated for 30 mins by Amplex Red assay
[13] = molecular target: T2, Amine oxidase [flavin-containing] B; test: Activity at recombinant human MAO-B expressed in baculovirus infected BT1 cells assessed as hydrogen peroxide generation rate using benzylamine as substrate at 500 uM preincubated for 30 mins by Amplex Red assay
[14] = molecular target: T2, Amine oxidase [flavin-containing] B; test: Ratio of relative Vmax to Km for recombinant human MAO-B expressed in baculovirus infected BT1 cells assessed as hydrogen peroxide generation rate using benzylamine as substrate at 500 uM preincubated for 30 mins by Amplex Red assay
[15] = molecular target: T2, Amine oxidase [flavin-containing] B; test: Ratio of relative Vmax to Km for recombinant human MAO-B expressed in baculovirus infected BT1 cells assessed as hydrogen peroxide generation rate preincubated for 30 mins by Amplex Red assay; conditions: 0.5 h
[16] = molecular target: T1, Amine oxidase [flavin-containing] A; test: Activity at recombinant human MAO-A expressed in baculovirus infected BT1 cells assessed as hydrogen peroxide generation rate preincubated for 30 mins by Amplex Red assay relative to control
[17] = molecular target: T1, Amine oxidase [flavin-containing] A; test: Ratio of relative Vmax to Km for recombinant human MAO-A expressed in baculovirus infected BT1 cells assessed as hydrogen peroxide generation rate preincubated for 30 mins by Amplex Red assay; conditions: 0.5 h
[18] = molecular target: T2, Amine oxidase [flavin-containing] B; test: Activity at recombinant human MAO-B expressed in baculovirus infected BT1 cells assessed as hydrogen peroxide generation rate preincubated for 30 mins by Amplex Red assay relative to control
[19] = molecular target: T1, Amine oxidase [flavin-containing] A; test: Activity at recombinant human MAO-A expressed in baculovirus infected BT1 cells assessed as hydrogen peroxide generation rate preincubated for 30 mins by Amplex Red assay; conditions: 0.5 h
[20] = Cytotoxicity against human SH-SY5Y cells after 24 hrs by Annexin V-PE-based flow cytometry; assay type: cell-based; conditions: for IC50: Homo sapiens, SH-SY5Y; for Activity: human, sh-sy5y
[21] = molecular target: T1, Amine oxidase [flavin-containing] A; test: Irreversible inhibition of recombinant human MAO-A expressed in baculovirus infected BT1 cells using p-tyramine as substrate by Lineweaver-Burk plot analysis
[22] = molecular target: T2, Amine oxidase [flavin-containing] B; test: biochemical; assay type: cell-based
[23] = molecular target: T2, Amine oxidase [flavin-containing] B; test: Ratio of residual Vmax to Km for recombinant human MAO-B expressed in baculovirus infected BT1 cells assessed as residual activity using benzylamine as substrate at 20 uM preincubated for 30 mins by Amplex Red assay
[24] = molecular target: T1, Amine oxidase [flavin-containing] A; test: Inhibition of recombinant human MAO-A expressed in baculovirus infected BT1 cells using p-tyramine as substrate at 20 to 240 uM by Lineweaver-Burk plot analysis
[25] = molecular target: T1, Amine oxidase [flavin-containing] A; test: Ratio of residual Vmax to Km for recombinant human MAO-A expressed in baculovirus infected BT1 cells assessed as residual activity using benzylamine as substrate at 20 uM preincubated for 30 mins by Amplex Red assay
[26] = molecular target: T1, Amine oxidase [flavin-containing] A; test: Inhibition of recombinant human MAO-A expressed in baculovirus infected BT1 cells assessed as residual activity using p-tyramine as substrate at 50 uM at 37 degC
[27] = molecular target: T1, Amine oxidase [flavin-containing] A; test: Inhibition of recombinant human MAO-A expressed in baculovirus infected BT1 cells using p-tyramine as substrate after 20 to 80 mins by Lineweaver-Burk plot analysis
[28] = molecular target: T1, Amine oxidase [flavin-containing] A; test: Competitive inhibition of MAOA in human SH-SY5Y cells using p-tyramine as substrate preincubated for 5 mins by Lineweaver-Burk plot analysis; assay type: cell-based
[29] = molecular target: T1, Amine oxidase [flavin-containing] A; test: Inhibition of recombinant human MAO-A expressed in baculovirus infected BT1 cells assessed as residual activity using p-tyramine as substrate at 100 uM preincubated for 24 hrs measured after 10 mins; conditions: read-out: Activity
[30] = molecular target: T1, Amine oxidase [flavin-containing] A; test: Inhibition of recombinant human MAO-A expressed in baculovirus infected BT1 cells assessed as residual activity using p-tyramine as substrate at 50 uM at 25 degC
[31] = molecular target: T1, Amine oxidase [flavin-containing] A; test: Inhibition of recombinant human MAO-A expressed in baculovirus infected BT1 cells assessed as residual activity using p-tyramine as substrate at 100 uM after 10 mins; conditions: read-out: Activity
[32] = molecular target: T2, Amine oxidase [flavin-containing] B; test: Activity at recombinant human MAO-B expressed in baculovirus infected BT1 cells assessed as hydrogen peroxide generation rate preincubated for 30 mins by Amplex Red assay

NCCCNCCCCNCCCNCc1ccccc1
Ki [1]: 188 µM
fold change (FC) [2]: 0.66
fold change (FC) [3]: 0.38
Ki [4]: 785 µM
fold change (FC) [5]: 0.48
Ki [6]: 291 µM
Ki [7]: 170 µM
fold change (FC) [8]: 0.97

NCCCCCCCCNCCCNCc1cccs1
fold change (FC) [9]: < 0.01
fold change (FC) [2]: 0.75
fold change (FC) [3]: 0.69
fold change (FC) [5]: 0.96
Km [10]: < 10 nM
fold change (FC) [11]: < 0.01
fold change (FC) [12]: < 0.01
fold change (FC) [8]: 0.71
Km [13]: < 10 nM
fold change (FC) [14]: < 0.01

NCCCCCCCCCCCCNCc1cccs1
fold change (FC) [15]: 12
fold change (FC) [16]: 0.1
fold change (FC) [17]: 0.29
fold change (FC) [18]: 0.53

NCCCOCCCCOCCCNCc1cccs1
Km [19]: > 1.2 mM
fold change (FC) [15]: 0.21
fold change (FC) [17]: 0.06
fold change (FC) [18]: 0.19

NCCCCCCCCCCCCNCc1ccccc1
IC50 [20]: 327 µM
Activity [20]: Dose-dependent effect
fold change (FC) [15]: 18.6
fold change (FC) [16]: 0.08
fold change (FC) [17]: 0.4
fold change (FC) [18]: 1

CN(CCCCCCCCCCCCN=C=S)Cc1ccccc1
Ki [21]: 5 µM
Ki [22]: 9 µM
fold change (FC) [23]: 0.2
IC50 [20]: 180 µM
Activity [20]: Dose-dependent effect
inhibition (INH) [24]: Dose-dependent effect
fold change (FC) [25]: 0.22
kinact [26]: 0.00075 s⁻¹
inhibition (INH) [27]: Dose-dependent effect
Ki [28]: 4.9 µM
activity at 100 µM [29]: 100%
kinact [30]: 0.0002 s⁻¹
activity at 100 µM [31]: 64%

CN(CCCCCCCCCCCCN)Cc1ccccc1
fold change (FC) [15]: 17.5
fold change (FC) [16]: 0.03
fold change (FC) [17]: 0.6
fold change (FC) [18]: 0.24

c1ccc(CNCCCCCCCCCCCCNCc2ccccc2)cc1
Ki [1]: 186 µM
fold change (FC) [2]: 0.37
fold change (FC) [3]: 0.29
Ki [4]: 1050 µM
fold change (FC) [5]: 0.52
Ki [6]: 129 µM
Ki [7]: 55 µM
fold change (FC) [8]: 0.62

NCCCNCCCCNCCCNCc1ccc2ccccc2c1
Activity [32]: Not Active
fold change (FC) [2]: 0.91
fold change (FC) [3]: 0.62
Activity [19]: Not Active
fold change (FC) [5]: 0.52
fold change (FC) [8]: 0.81

NCCCNCCCCNCCCNCc1cccnc1
Activity [32]: Not Active
fold change (FC) [2]: 0.72
fold change (FC) [3]: 0.72
Activity [19]: Not Active
fold change (FC) [5]: 0.52
fold change (FC) [8]: 0.93

NCCCNCCCCNCCCNCc1cccs1
Ki [1]: 997 µM
Activity [32]: Not Active
fold change (FC) [2]: 0.05
fold change (FC) [3]: 0.57
Ki [4]: 414 µM
Activity [19]: Not Active
fold change (FC) [5]: 0.52
Ki [6]: 23 µM
Ki [7]: 226 µM
fold change (FC) [8]: 0.63

C=CCN=C=S [ALLYL ISOTHIOCYANATE]
fold change (FC) [23]: 0.98
fold change (FC) [25]: 1

NCCCNCCCCNCCCN [SPERMINE]
fold change (FC) [2]: 0.76
fold change (FC) [3]: 0.86
fold change (FC) [5]: 0.77
fold change (FC) [8]: 0.98

C[S+]([O-])CCCCN=C=S (stereo not drawn) [SULFORAPHANE]
fold change (FC) [23]: 1.01
IC50 [20]: 20 µM
fold change (FC) [25]: 0.78
